Source: patent US20100256199A1, “Crystalline form of an Antimalarial Compound” (Glaxo Group Limited, priority 2007, published 2010)

Tests used:
Format in all cases: physicochemical
[1] = Competitive ripening experiments between Form 1 and Form 2 (relative thermodynamic stability)
Procedure: Forms 1 and 2 of the compound of Formula (I) are both stable at ambient temperature. Competitive ripening experiments between Form 1 and 2 of the compound of Formula (I) were conducted in i) a mixture of acetone and 1-propanol at 23° C.; ii) in acetone at 10° C. and iii) in acetone at 50° C.

[2] = Stability of the polymorphic forms at ambient temperature
[3] = Hygroscopicity of the crystalline form

Row | Polymorphic form conversion in competitive ripening experiments ([1]; i) mixture of acetone and 1-propanol at 23° C.; ii) acetone at 10° C.; iii) acetone at 50° C., same outcome in each) | Stability at ambient temperature [2] | Hygroscopic nature [3] | Compound | Relative thermodynamic stability ([1]; at ambient temperatures, for example at 23° C.) | Relative thermodynamic stability ([1]; between 10° C. and 50° C.)
1 | converted to Form 2 | stable | – | Cc1[nH]c(CO)c(-c2ccc(Oc3ccc(OC(F)(F)F)cc3)cc2)c(=O)c1Cl [Form 1, 3-chloro-6-(hydroxymethyl)-2-methyl-5-[4-({4-[(trifluoromethyl)oxy]phenyl}oxy)phenyl]-4(1H)-pyridinone] | – | –
2 | – | – | non-hygroscopic | Cc1[nH]c(CO)c(-c2ccc(Oc3ccc(OC(F)(F)F)cc3)cc2)c(=O)c1Cl [Form 2, 3-chloro-6-(hydroxymethyl)-2-methyl-5-[4-({4-[(trifluoromethyl)oxy]phenyl}oxy)phenyl]-4(1H)-pyridinone] | thermodynamically more stable than Form 1 | thermodynamically more stable than Form 1
